Measured values as given in US20240018132A1, “5-HYDROXY-1,4-NAPHTHALENEDIONE FOR USE IN THE TREATMENT OF CANCER” (GODAVARI BIOREFINERIES LIMITED, priority 2020, published 2024).

Columns and labels:
[1] = test system: PC3; test: In vitro sphere-forming assay (cancer stem cells), Prostosphere media; conditions: for 3D sphere count of PC3: Prostosphere media, 2000 cells/well, n = 6 ± S.D
Method: (§1) In Vitro Sphere-forming Assay: Sphere assay measures the ability of cancer stem cells (CSCs) to form spheres in specially designed serum-free medium.
Prostosphere Media Preparation (For 100 mL):1 g methyl cellulose autoclaved with magnetic stirrer, 100 mL plain media (Prostate Epithelial Basal Medium) was added and dissolved, under magnetic stirring. After complete dissolution, Insulin-40 μL, B27-2 mL, EGF-80 μL, Penstrep-1 ml was added.
(§2) Procedure—The cells were trypsinised and made into single-cell suspension by passing through cell strainers (100 μl and 40 μl, respectively), The cells were diluted at a concentration of 2000 cells/100 μL and suspended in either Mammosphere (for breast cell lines) or Prostosphere (for prostate cell lines). 100 μL of this suspension was added into each well of 96-well suspension plates and incubated at 37° C., 5% CO2 for 24 hrs. Appropriate concentrations of the drugs (2 μL) were added into respective wells with 100 μL of stem cell culture medium. Plates were incubated at 37° C., 50 CO2 for 72 hrs. After incubation, 2.5 μL of the respective drug concentration and 50 μL of stem cell culture medium were added into each well and the plates were further incubated at 37° C., 50% CO2 for 72 hrs. 3 μL of the respective drug concentration was added with 50 μL of stem cell culture medium again after incubation and plates were reincubated for 72 hrs at 37° C., 50 CO2. Number of primary spheres formed for each concentration were counted. The spheres were converted to 0 viability of spheres compared to untreated (Growth Control with DMSO, GCD).

[2] = test system: MDAMB231; test: In vitro sphere-forming assay (cancer stem cells), Mammosphere media; conditions: for 3D sphere count of MDAMB231: Mammosphere media, 2000 cells/well, n = 6 ± S.D
Method: as §1
Mammosphere Media Preparation (For 100 mL): 1 g methyl cellulose autoclaved with magnetic stirrer, 100 ml plain media (MEBM) was added and dissolved under magnetic stirring. After complete dissolution FGF-80 μL, EGF-40 μL, Penstrep-1 mL, Heparin-400 μL was added.
as §2

[3] = Homo sapiens, PC-3, read-out: % Viability of spheres (PC3)
[4] = Homo sapiens, MDA-MB-231, read-out: % Viability of spheres (MDAMB231)

Row | SMILES | viability at 0.025 µM [1, 3] [%] | viability at 0.25 µM [1, 3] [%] | viability at 2.5 µM [1, 3] [%] | viability at 25 µM [1, 3] [%] | 3D sphere count of PC3 ([1]; drug 0.025 uM) | 3D sphere count of PC3 ([1]; drug 0.25 uM) | 3D sphere count of PC3 ([1]; drug 2.5 uM) | 3D sphere count of PC3 ([1]; drug 25 uM) | viability at 0.025 µM [2, 4] [%] | viability at 0.25 µM [2, 4] [%] | viability at 2.5 µM [2, 4] [%] | viability at 25 µM [2, 4] [%] | 3D sphere count of MDAMB231 ([2]; drug 0.025 uM) | 3D sphere count of MDAMB231 ([2]; drug 0.25 uM) | 3D sphere count of MDAMB231 ([2]; drug 2.5 uM) | 3D sphere count of MDAMB231 ([2]; drug 25 uM) | viability at 0.0025 µM [1, 3] [%] | 3D sphere count of PC3 ([1]; drug 0.0025 uM) | viability at 0.0025 µM [2, 4] [%] | 3D sphere count of MDAMB231 ([2]; drug 0.0025 uM) | further results
1 | O=C1C(c2ccc3c(c2)OCO3)=CC(=O)c2c(OCCCCN3CCOCC3)cccc21 [Formula 2, 5-(4-morpholinobutoxy)-2-(benzo[d][1,3]dioxol-6-yl)naphthalene-1,4-dione] | 77 | 65 | 39 | 21 | 63(±4) | 53(±3) | 32(±4) | 17(±3) | 84 | 66 | 46 | 30 | 65(±5) | 51(±3) | 36(±3) | 23(±3) |  |  |  |  | viability at 250 µM [1, 3]: 10%; 3D sphere count of PC3 ([1]; drug 250 uM): 8(±2); viability at 250 µM [2, 4]: 14%; 3D sphere count of MDAMB231 ([2]; drug 250 uM): 11(±3)
2 | COc1ccc(NC2=CC(=O)c3c(OCCN4CCOCC4)cccc3C2=O)cc1OC [Formula 40, 5-(2-morpholinoethoxy)-2-(3,4-dimethoxyphenylamino) naphthalene-1,4-dione] | 65 | 47 | 34 | 17 | 57(±3) | 41(±3) | 30(±3) | 15(±3) | 56 | 41 ± 4 | 27 | 10 | 43(±3) | 32(±4) | 21(±3) | 8(±2) | 80 | 70(±5) | 78 | 60(±3) | 
3 | O=C1C(NC2CCCCC2)=CC(=O)c2c(OCCN3CCOCC3)cccc21 [Formula 52] | 77 | 62 | 49 | 30 | 63(±4) | 51(±3) | 40(±4) | 25(±3) | 50 | 45 | 38 | 26 | 55(±7) | 43(±3) | 34(±4) | 24(±3) | 87 | 71(±3) | 62 | 69(±3) | 
